Source: ChEMBL document CHEMBL1201862, “PubChem BioAssay data set” (2004)
Activity calls are given as the source filed them.

What was measured:
[1] = Luminescence Cell-Based Dose Response HTS to Identify Activators of Luciferase Translation or Activity in H4 […] Cells. [Related pubchem assays: 1829 (Project Summary), 1814 (Primary HTS)]; format: functional
[2] = system: H4; test: Luminescence Cell-Based Dose Response HTS to Identify Activators of 5'UTR Stem-Loop Driven Prion Protein mRNA Translation in H4 Neuroglioblastoma Cells. [Related pubchem assays: 1829 (Project Summary), 1814 (Primary HTS)]; format: functional; settings: Homo sapiens
[3] = cells; format: functional
[4] = biological target: Cytochrome P450 2D6 (Homo sapiens, UniProt P10635);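 further: CYP2D6 member of a cytochrome P450 panel assay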
Chain of Cytochrome P450 2D6 (P10635 whole entry): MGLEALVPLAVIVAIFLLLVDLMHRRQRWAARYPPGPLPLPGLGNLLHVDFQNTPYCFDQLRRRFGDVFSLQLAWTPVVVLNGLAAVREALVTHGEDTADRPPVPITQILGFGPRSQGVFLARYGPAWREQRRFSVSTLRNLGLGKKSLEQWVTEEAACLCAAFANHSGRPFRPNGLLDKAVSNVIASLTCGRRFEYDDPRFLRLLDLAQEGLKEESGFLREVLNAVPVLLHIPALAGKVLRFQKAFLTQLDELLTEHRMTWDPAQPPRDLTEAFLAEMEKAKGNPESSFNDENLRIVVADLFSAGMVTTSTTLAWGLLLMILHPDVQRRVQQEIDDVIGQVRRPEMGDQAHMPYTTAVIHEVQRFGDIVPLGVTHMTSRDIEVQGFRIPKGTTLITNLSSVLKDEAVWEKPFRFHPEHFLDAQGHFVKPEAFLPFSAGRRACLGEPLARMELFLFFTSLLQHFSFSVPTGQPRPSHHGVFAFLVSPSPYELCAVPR

[5] = biological target: Cytochrome P450 2C9 (Homo sapiens, UniProt P11712)
Chain of Cytochrome P450 2C9 (P11712 whole entry): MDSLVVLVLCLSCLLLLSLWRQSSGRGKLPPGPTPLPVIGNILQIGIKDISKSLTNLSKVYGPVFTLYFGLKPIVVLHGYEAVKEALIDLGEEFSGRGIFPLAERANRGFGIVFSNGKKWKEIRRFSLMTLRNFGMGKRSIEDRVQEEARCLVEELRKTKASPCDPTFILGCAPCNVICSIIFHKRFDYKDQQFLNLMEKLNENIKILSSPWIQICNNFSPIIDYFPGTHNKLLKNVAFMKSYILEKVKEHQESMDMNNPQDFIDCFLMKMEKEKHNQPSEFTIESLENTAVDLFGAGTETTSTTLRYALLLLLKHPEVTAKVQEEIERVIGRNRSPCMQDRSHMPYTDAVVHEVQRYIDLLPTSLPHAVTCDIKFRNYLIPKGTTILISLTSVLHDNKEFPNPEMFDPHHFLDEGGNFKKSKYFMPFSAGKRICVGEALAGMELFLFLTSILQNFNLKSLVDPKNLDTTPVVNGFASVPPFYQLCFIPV

[6] = system: Streptococcus sp. 'group A'; test: growth inhibition of control SK(-) GAS strain, dose response, counter-screen for streptokinase expression inhibitor project, luminescence, kanamycin, BacTiterGlo, confirmation (AID 1900); format: functional, organism-based
[7] = biological target: T1, Streptokinase A (Streptococcus pyogenes serotype M1, UniProt P10520); test: S. pyogenes streptokinase expression inhibitors, potency, dose response, plasminogen activation absorbance, OD405 (AID 1914); format: functional, Streptococcus pyogenes M1 GAS;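 further: secreted streptokinase activity via plasminogen activation per viability signal from cell pellet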
T1 sequence (P10520 whole entry): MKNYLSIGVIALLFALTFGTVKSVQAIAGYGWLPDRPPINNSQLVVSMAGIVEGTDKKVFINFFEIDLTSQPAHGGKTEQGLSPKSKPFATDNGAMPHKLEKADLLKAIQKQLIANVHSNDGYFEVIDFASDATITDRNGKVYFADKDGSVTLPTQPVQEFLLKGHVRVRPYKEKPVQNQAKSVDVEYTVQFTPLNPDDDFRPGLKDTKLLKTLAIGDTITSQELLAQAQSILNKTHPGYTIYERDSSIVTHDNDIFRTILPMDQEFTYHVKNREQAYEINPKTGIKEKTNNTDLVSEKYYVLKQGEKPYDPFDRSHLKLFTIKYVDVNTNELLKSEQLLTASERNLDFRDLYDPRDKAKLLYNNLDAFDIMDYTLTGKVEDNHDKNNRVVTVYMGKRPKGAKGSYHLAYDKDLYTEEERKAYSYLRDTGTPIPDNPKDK

[8] = system: Streptococcus; test: Group A Streptococcus viability loss, dose response, counter-screen for streptokinase expression inhibitor project, luminescence, BacTiterGlo (AID 1915); format: functional, organism-based;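 further: potency for reduction of bacterial viability or growth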
[9] = biological target: Cytochrome P450 2C19 (Homo sapiens, UniProt P33261); test: Cytochrome panel assay with activity outcomes. Panel member name: p450-cyp2c19 Compounds with AC50 equal or less than 10 uM are considered active; format: functional
Chain of Cytochrome P450 2C19 (P33261 whole entry): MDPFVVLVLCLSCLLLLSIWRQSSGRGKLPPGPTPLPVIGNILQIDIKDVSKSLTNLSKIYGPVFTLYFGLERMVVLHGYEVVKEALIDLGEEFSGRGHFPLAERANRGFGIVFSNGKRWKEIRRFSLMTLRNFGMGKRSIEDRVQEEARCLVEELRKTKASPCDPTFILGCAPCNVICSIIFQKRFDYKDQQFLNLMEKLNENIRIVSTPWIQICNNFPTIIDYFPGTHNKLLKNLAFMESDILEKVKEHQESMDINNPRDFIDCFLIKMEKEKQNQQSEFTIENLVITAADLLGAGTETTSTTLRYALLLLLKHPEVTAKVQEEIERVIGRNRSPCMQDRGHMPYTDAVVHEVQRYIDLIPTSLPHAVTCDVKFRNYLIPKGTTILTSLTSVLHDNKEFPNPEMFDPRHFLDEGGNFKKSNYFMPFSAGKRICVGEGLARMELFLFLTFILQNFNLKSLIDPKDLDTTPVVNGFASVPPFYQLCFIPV

[10] = biological target: T2, Rac GTPase-activating protein 1 (Homo sapiens, UniProt Q9H0H5); test: MgcRacGAP GTPase-activating activity inhibitors, confirmation, biochemical, ADP Hunter fluorescence, primary and confirmatory (AID 624330); format: functional
T2 sequence (Q9H0H5 whole entry): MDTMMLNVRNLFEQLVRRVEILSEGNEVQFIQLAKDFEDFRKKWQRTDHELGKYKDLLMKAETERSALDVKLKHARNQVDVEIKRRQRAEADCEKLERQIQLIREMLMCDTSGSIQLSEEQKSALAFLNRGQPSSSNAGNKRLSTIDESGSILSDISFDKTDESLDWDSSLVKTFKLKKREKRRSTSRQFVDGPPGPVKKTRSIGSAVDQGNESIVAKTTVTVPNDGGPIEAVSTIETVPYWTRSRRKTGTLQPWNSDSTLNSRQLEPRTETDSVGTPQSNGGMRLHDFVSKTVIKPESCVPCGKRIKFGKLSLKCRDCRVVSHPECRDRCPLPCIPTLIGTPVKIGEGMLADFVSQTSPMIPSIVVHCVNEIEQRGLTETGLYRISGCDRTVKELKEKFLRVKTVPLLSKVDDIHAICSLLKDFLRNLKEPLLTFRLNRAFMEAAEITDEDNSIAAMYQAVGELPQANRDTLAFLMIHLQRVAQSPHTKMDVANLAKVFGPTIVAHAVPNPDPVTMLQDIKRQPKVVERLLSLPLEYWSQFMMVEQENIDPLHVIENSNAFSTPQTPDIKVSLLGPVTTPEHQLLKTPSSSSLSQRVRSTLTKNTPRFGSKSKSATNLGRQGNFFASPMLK

[11] = inhibitors of intracellular T. cruzi replication, confirmation, NIH3T3 host cells, beta-gal luminescence (AID 2044); format: functional, cell-based;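 further: intracellular parasites grown in NIH/3T3 mouse fibroblasts as host cells; luminescent beta-galactosidase reporter signal from transgenic T. cruzi replicating inside host cells; inhibitors lower the luminescence signal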
[12] = cytotoxicity toward NIH3T3 fibroblasts, dose response, counter-screen, cell-based, ATP luminescence, mouse fibroblasts (AID 2010); format: functional;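 further: cells exposed to compound for about 90 hours before reading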
[13] = biological target: Cytochrome P450 3A4 (Homo sapiens, UniProt P08684);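 further: CYP3A4 tested as one member of a cytochrome P450 panel screen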
Chain of Cytochrome P450 3A4 (P08684 whole entry): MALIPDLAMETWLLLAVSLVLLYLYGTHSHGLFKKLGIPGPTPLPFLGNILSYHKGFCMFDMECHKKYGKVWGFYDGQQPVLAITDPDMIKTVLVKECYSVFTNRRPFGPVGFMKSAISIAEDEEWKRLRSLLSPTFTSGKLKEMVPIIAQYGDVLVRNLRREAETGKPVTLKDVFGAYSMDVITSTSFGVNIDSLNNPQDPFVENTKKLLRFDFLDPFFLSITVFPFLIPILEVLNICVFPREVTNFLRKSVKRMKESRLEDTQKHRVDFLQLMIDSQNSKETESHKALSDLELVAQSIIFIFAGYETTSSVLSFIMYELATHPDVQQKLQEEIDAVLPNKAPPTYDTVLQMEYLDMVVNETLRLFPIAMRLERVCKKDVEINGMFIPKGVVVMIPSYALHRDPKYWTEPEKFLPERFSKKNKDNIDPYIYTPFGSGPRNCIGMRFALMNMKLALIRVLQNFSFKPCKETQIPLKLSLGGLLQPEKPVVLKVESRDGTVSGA

Q: What does the source list for Fc1ccc(CSc2nnc(-c3ccccn3)o2)cc1?
A: EC50 [1]: 103 nM (active); EC50 [2]: 175 nM (active)

Q: With CCCCNC(=O)Nc1nnc(-c2ccc(Cl)cc2)o1 as the compound, how does the IC50 [3] read?
A: 13.2 µM (active)

Q: What does the source list for O=C(CCNc1cccc(Cl)c1)c1cccs1?
A: IC50 [3]: 20 µM (active); AC50 [4]: 22.4 µM (inconclusive); AC50 [5]: 20 µM (inconclusive)

Q: Which EC50 [1] does the source give for O=c1c2ccccc2nc2oc3ccccc3n12 here?
A: 123 nM (active)

Q: And the EC50 [2]?
A: 139 nM (active)

Q: For O=C(Nc1cccc(C(F)(F)F)c1)c1cc2c(=O)c3ccccc3oc2nc1C(F)(F)F, which EC50 [6] is on record?
A: 18.7 µM (active)

Q: And the EC50 [7]?
A: 43.3 µM (inconclusive)

Q: What about the EC50 [8] of the same compound?
A: 65.1 µM (active)

Q: With COc1ccc(COC(=O)N/N=C2/C[C@@H](O)[C@@H](O)[C@@H]3[C@@H]4C(=O)N(c5cccc(Oc6ccccc6)c5)C(=O)[C@H]4CC[C@H]23)cc1 as the compound, how does the AC50 [4] read?
A: 2.51 µM (inconclusive)

Q: With CCCC1CCC(c2ccc(C(N)=O)cc2)CC1 (stereo not drawn) as the compound, how does the AC50 [9] read?
A: inconclusive

Q: And the AC50 [5]?
A: 0.0158 µM (inconclusive)

Q: For CCN(CC)c1ccc(NC(=O)COC(=O)CCC(=O)c2cccs2)cc1, which IC50 [10] is on record?
A: 74.4 µM (active)

Q: With CCOC(=O)C(C)(C)n1nnc(-c2ccc([N+](=O)[O-])cc2)n1 as the compound, how does the IC50 [3] read?
A: 45.9 µM (active)

Q: With O=C(NN=Cc1ccc(O)cc1O)c1ccccc1NS(=O)(=O)c1cccs1 as the compound, how does the IC50 [10] read?
A: 110 µM (active)

Q: Which IC50 [3] does the source give for COC(=O)c1cc2c(ccc3ccccc32)oc1=O here?
A: 6.54 µM (active)

Q: Which AC50 ([9]; read-out: AC50) does the source give for O=C(c1cn(-c2ccccc2)nc1-c1cccs1)N1CCOCC1 here?
A: 39.8 µM (inconclusive)

Q: And the AC50 [5]?
A: 39.8 µM (inconclusive)

Q: For COc1cc(CNCc2cccs2)ccc1OCC(=O)NC(C)(C)C, which AC50 [4] is on record?
A: 10 µM (inconclusive)

Q: Which IC50 [3] does the source give for O/C(=C\C=N\c1ccccc1O)c1ccco1 here?
A: 4.76 µM (active)

Q: What does the source list for O=C(NCc1ccc(C(F)(F)F)cc1)c1ccc2c(c1)S(=O)(=O)c1ccccc1C2=O?
A: EC50 [6]: > 150 µM (not active); EC50 [7]: > 150 µM (not active); EC50 [8]: > 150 µM (not active)

Q: Which AC50 ([9]; read-out: AC50) does the source give for O=C(CNC(=O)c1ccccn1)N/N=C/c1ccccc1 here?
A: 17.8 µM (inconclusive)

Q: With C/C(=N\NC(=O)c1cc2ccccc2cc1O)c1cccs1 as the compound, how does the EC50 [6] read?
A: 18.3 µM (active)

Q: What about the EC50 [7] of the same compound?
A: > 150 µM (not active)

Q: What about the EC50 [11] of the same compound?
A: 44.7 µM (active)

Q: And the EC50 [12]?
A: > 60 µM (not active)

Q: And the EC50 [8]?
A: 59.6 µM (active)

Q: Which IC50 [10] does the source give for COc1cc(/C=N/NC(=O)c2ccc(N3CCCC3=O)cc2)ccc1O here?
A: 30.8 µM (active)

Q: For CN(C)/C=N/c1ncc(C(=O)c2ccccc2)s1, which EC50 [1] is on record?
A: 251 nM (active)

Q: What about the EC50 [2] of the same compound?
A: 119000 nM (active)

Q: For COc1cccc(/C=N\NC(=O)c2cc(OCC(F)(F)F)ccc2OCC(F)(F)F)c1, which AC50 ([9]; read-out: AC50) is on record?
A: 0.891 µM (inconclusive)

Q: And the AC50 [13]?
A: 35.5 µM (inconclusive)

Q: With O=C1/C(=C/c2cccnc2)S/C(=N/Cc2ccccc2)N1Cc1ccccc1 as the compound, how does the EC50 [6] read?
A: 21.6 µM (active)

Q: What about the EC50 [7] of the same compound?
A: 14.7 µM (active)

Q: What about the EC50 [11] of the same compound?
A: 1.66 µM (active)

Q: What about the EC50 [12] of the same compound?
A: > 60 µM (not active)

Q: And the EC50 [8]?
A: > 150 µM (not active)

Q: What does the source list for CCSc1ncc(/C=N/Nc2ccc(F)cc2)n1C?
A: AC50 ([9]; read-out: AC50): 0.0794 µM (inconclusive); AC50 [13]: 1.58 µM (inconclusive)
